Experimental data: ChEMBL document CHEMBL4513149, “CO-ADD screening of MMV (CH) - MMV compounds” (2021)
In brackets after ≈: the same amount, converted by molar mass. Structures can show the parent of a compound that is named as a salt.

Experiments:
Klebsiella pneumoniae = assay: microbe, parasite or virus in culture; details: ATCC 700603, 18 h, ASSAY_TEST Inhibition of Bacterial Growth, detection method Absorption (OD600), MEDIA CAMHB, plate type 384well, NBS, CORNING #3640
Description: Antibacterial activity against Klebsiella pneumoniae MDR ATCC 70063 (CO-ADD:GN_003); MIC in CAMBH media using NBS plates, by OD(600)

Staphylococcus aureus = assay: microbe, parasite or virus in culture; details: ATCC 43300, 18 h, ASSAY_TEST Inhibition of Bacterial Growth, detection method Absorption (OD600), MEDIA CAMHB, plate type 384well, NBS, CORNING #3640
Description: Antibacterial activity against Staphylococcus aureus MRSA ATCC 43300 (CO-ADD:GP_020); MIC in CAMBH media, using NBS plates, by OD(600)

Acinetobacter baumannii = assay: microbe, parasite or virus in culture; details: ATCC 19606, 18 h, ASSAY_TEST Inhibition of Bacterial Growth, detection method Absorption (OD600), MEDIA CAMHB, plate type 384well, NBS, CORNING #3640
Description: Antibacterial activity against Acinetobacter baumannii ATCC 19606 (CO-ADD:GN_034); MIC in CAMBH media using NBS plates, by OD600

HEK293 = assay: cells; format: functional; details: Homo sapiens, ATCC CRL1573, HEK293; ASSAY_TEST Inhibition of Cell Viability; detection method Resazurin; Fluorescence (ex560/em590); MEDIA DMEM with 10% FBS; plate type 384well; TC; CORNING #3712; time 18 hr
Pseudomonas aeruginosa = assay: microbe, parasite or virus in culture; details: ATCC 27853, 18 h, ASSAY_TEST Inhibition of Bacterial Growth, detection method Absorption (OD600), MEDIA CAMHB, plate type 384well, NBS, CORNING #3640
Description: Antibacterial activity against Pseudomonas aeruginosa ATCC 27853 (CO-ADD:GN_042); MIC in CAMBH media using NBS plates, by OD(600)

Candida albicans = assay: microbe, parasite or virus in culture; details: ATCC 90028, ASSAY_TEST Inhibition of Fungal Growth, detection method Absorption (OD530), plate type 384well, NBS, CORNING #3640
Description: Antifungal activity against Candida albicans ATCC 90028 (CO-ADD:FG_001); MIC in YNB media using NBS plates, by OD630

Escherichia coli = assay: microbe, parasite or virus in culture; details: ATCC 25922, 18 h, ASSAY_TEST Inhibition of Bacterial Growth, detection method Absorption (OD600), MEDIA CAMHB, plate type 384well, NBS, CORNING #3640
Description: Antibacterial activity against Escherichia coli ATCC 25922 (CO-ADD:GN_001); MIC in CAMBH media using NBS plates, by OD(600)

Description for Cryptococcus neoformans: Antifungal activity against Cryptococcus neoformans H99 ATCC 208821 (CO-ADD:FG_002); MIC in YNB media using NBS plates, by Resazurin OD(600-570)

| SMILES | MIC (Klebsiella pneumoniae) [µM] | MIC (Staphylococcus aureus) [µM] | MIC (Acinetobacter baumannii) [µM] | CC50 (HEK293) [µM] | MIC (Pseudomonas aeruginosa) [µM] | MIC (Candida albicans) [µM] | MIC (Escherichia coli) [µM] | MIC (Cryptococcus neoformans) [µM] |
| --- | --- | --- | --- | --- | --- | --- | --- | --- |
| Cc1ccc2c(c1C)NC(=O)C21NN=C(c2ccccc2)S1 (configuration not stated) | > 10 | > 10 | > 10 | > 10 | > 10 | > 10 | > 10 | > 10 |
| CCN(CC)S(=O)(=O)c1ccc(C(=O)Nc2cc(C)nn2-c2nc(C)c(C)c(=O)[nH]2)cc1 | > 10 | > 10 | > 10 | > 10 | > 10 | > 10 | > 10 | > 10 |
| N=C(N)Nc1ccc(-c2ccc(-c3ccc(NC(=N)N)cc3Cl)o2)c(Cl)c1 | 10 (≈ 4.03 µg/mL) | 1.25 (≈ 0.504 µg/mL) | 5 (≈ 2.02 µg/mL) | > 10 | 10 (≈ 4.03 µg/mL) | 2.5 (≈ 1.01 µg/mL) | 5 (≈ 2.02 µg/mL) | 1.25 (≈ 0.504 µg/mL) |
| C[C@H]1c2cccc(O)c2C(=O)C2=C(O)[C@]3(O)C(=O)C(C(N)=O)=C(O)[C@@H](N(C)C)[C@@H]3[C@@H](O)[C@@H]21 [DOXYCYCLINE HYDROCHLORIDE] | > 10 | 0.156 | > 10 | > 10 | 0.156 | > 10 | 1.25 | > 10 |
| O=C(Nc1cccnc1)c1c(O)c2cccc3c2n(c1=O)CC3 | > 10 | > 10 | > 10 | > 10 | > 10 | > 10 | > 10 | > 10 |
| Cc1nn2c(=O)c3c([nH]c2c1-c1ccc(Cl)cc1)CCCC3 | > 10 | > 10 | > 10 | > 10 | > 10 | > 10 | > 10 | > 10 |
| CC(=O)NCC1CN(c2ccc(-c3ccc(CNCc4cn[nH]n4)cc3)c(F)c2)C(=O)O1 (configuration not stated) | > 10 | 10 (≈ 4.38 µg/mL) | > 10 | > 10 | > 10 | > 10 | > 10 | > 10 |
| COc1cccc(-n2nnnc2S(C)(=O)=O)c1 | > 10 | > 10 | > 10 | 2.96 | > 10 | > 10 | > 10 | > 10 |
| CC(C)(C)C(O)C(Oc1ccc(-c2ccccc2)cc1)n1cncn1 (configuration not stated) [BITERTANOL] | > 10 | > 10 | > 10 | > 10 | > 10 | 5 (≈ 1.69 µg/mL) | > 10 | 1.25 (≈ 0.422 µg/mL) |
| FC(F)(F)c1cnc(Sc2nnc(-c3ccncc3)o2)c(Cl)c1 | > 10 | 10 (≈ 3.59 µg/mL) | > 10 | > 10 | > 10 | > 10 | > 10 | > 10 |
| c1ccc(-c2nc(NC3CCCCC3)cc(C3CC3)n2)nc1 | > 10 | 10 (≈ 2.94 µg/mL) | > 10 | > 10 | > 10 | > 10 | > 10 | > 10 |
| COc1ccc2nccc(NC(=O)C3CCN(CCc4ccc(Cl)cc4)CC3)c2n1 | > 10 | 1.25 (≈ 0.531 µg/mL) | > 10 | > 10 | > 10 | > 10 | > 10 | > 10 |
| COc1cccc(-c2nc3c(N4CCCC4)cccc3n2CC2CCCN2)n1 (configuration not stated) | > 10 | 10 (≈ 3.77 µg/mL) | > 10 | > 10 | > 10 | > 10 | > 10 | > 10 |
| CC[C@@H]([C@H](C)O)n1ncn(-c2ccc(N3CCN(c4ccc(OC[C@@H]5CO[C@@](Cn6cncn6)(c6ccc(F)cc6F)C5)cc4)CC3)cc2)c1=O [POSACONAZOLE] | > 10 | > 10 | > 10 | > 10 | > 10 | 0.156 (≈ 0.11 µg/mL) | > 10 | 1.25 (≈ 0.876 µg/mL) |
